Converted amounts (≈) assume the structure as drawn. Where two headings read alike, the source gives them in different places. Blank lines part the entries; values can stand above or below the compound they belong to. Starred links: 1 amine or outer side, 2 acyl side, 3 side chain; linkers in the order of their positions; H or OH if unused. Positions of bridges follow the written chain, without caps; N, C: chain ends. Non-standard residues stand in square brackets, D forms with d. Residues, ends and D or L forms follow the SMILES beside them. *: point of attachment. Orn(4R-OH,5R-OH) = O=C([C@H](C[C@@H](O)[C@@H](O)N[*:3])N[*:1])[*:2]; hTyr(3S-OH,4S-OH) = N[C@H](C(=O)O)[C@H](O)[C@@H](O)c1ccc(O)cc1; Pro(3S-OH,4S-Me) = C[C@H]1CN[C@H](C(=O)O)[C@H]1O; Benzoyl(4-octyloxy) = CCCCCCCCOc1ccc(C(=O)*)cc1; X2 = CCCCCCCCCCCCCCS(=O)(=O)c1ccc(C(=O)*)cc1; X5 = CCCCCCCCCCCCS(=O)(=O)c1ccc(C(=O)*)cc1; X4 = CCCCCCCCCCS(=O)(=O)c1ccc(C(=O)*)cc1; X3 = CCCCCCCCCCCCCCSc1ccc(C(=O)*)cc1; X1 = CCCCCCCCCCCCSc1ccc(C(=O)*)cc1; Hyp = O=C(O)[C@@H]1C[C@@H](O)CN1; X8 = CCCCCCCCCOc1ccc(C(=O)*)cc1
What was measured:
[1] = test system: Candida albicans A-26; experiment: Agar dilution method, MIC; assay type: cell-based
Description: (§1) Tables 10 and 11 give the results of the testing in vitro of the compounds of Examples 3 and 4 by agar-plate disc-diffusion methods. In Table 10 activity is measured by the size (diameter in mm) of the observed zone of inhibition of the microorganism produced by the test compound. In Table 11, activity is measured by the minimal inhibitory concentration (MIC) of the substance (μg/disc) required to inhibit growth of the test organism. Table 12 gives the results of the testing in vitro of the p-(n-octyloxy)benzoyl derivative of A30912A nucleus [Formula III, R^1 is p-(n-octyloxy)benzoyl] against five strains of Candida albicans by the agar dilution method. In Table 12 activity is measured by the minimal inhibitory concentration (MIC) of the substance (μg/ml) required to inhibit the test organism.

[2] = test system: Candida albicans SBH16; experiment: Agar dilution method, MIC; assay type: cell-based
Description: as §1

[3] = test system: Candida albicans SBH29; experiment: Agar dilution method, MIC; assay type: cell-based
Description: as §1

[4] = test system: Candida albicans SBH31; experiment: Agar dilution method, MIC; assay type: cell-based
Description: as §1

[5] = test system: Candida albicans SBH28; experiment: Agar dilution method, MIC; assay type: cell-based
Description: as §1

[6] = test system: pathogenic fungi; experiment: Antifungal activity, standard biological test procedures; assay type: cell-based; details: cyclic nucleus lacking the linoleoyl side chain
Text: The compounds of Formula III inhibit the growth of pathogenic fungi as evidenced by standard biological test procedures. The compounds are useful, therefore, for controlling the growth of fungi on environmental surfaces (as an antiseptic) or in treating infections caused by fungi. […] Thus, the compounds are particularly useful in treating infections caused by strains of C. albicans (candidosis). The compounds of Formula III have also shown activity in vitro in agar-plate disc diffusion tests against Trichophyton mentagrophytes, a dermatophytic organism. Activity has also been found in in vitro agar-plate disc-diffusion tests against Saccharomyces pastorianus, and Neurospora crassa. Certain compounds (as shown in Example 6, Table 9) give significant blood levels upon oral administration in mice.

[7] = test system: Trichophyton mentagraphytes A-23; experiment: Agar plate disc diffusion test, zone of inhibition; assay type: cell-based, Trichophyton mentagrophytes
Description: as §1
(§2) ^(a) Compounds were tested as suspension in methanol. The compounds
(§3) were tested at a concentration of 1 mg/ml. by dipping a 7mm disc into the
(§4) suspension and placing it on the agar surface. Incubation: 24-48 hours at
(§5) *Measurable zone of inhibition with regrowth of organism around disc.

[8] = test system: Saccharomyces pastoranius X-52; experiment: Agar plate disc diffusion test, zone of inhibition; assay type: cell-based, Saccharomyces pastorianus
Description: as §1, §2, §3, §4, §5

[9] = test system: Neurospora crassa 846; experiment: Agar plate disc diffusion test, zone of inhibition; assay type: cell-based; details: Neurospora crassa, 846; 1 mg/ml suspension in methanol, 7mm disc; 24-48 hours at 25-37° C.; read-out: Size of Zone of Inhibition
Description: as §1, §2, §3, §4, §5

[10] = test system: Candida albicans A-26; experiment: Agar plate disc diffusion test, zone of inhibition; assay type: cell-based; details: 1 mg/ml suspension in methanol, 7mm disc; 24-48 hours at 25-37° C.
Description: as §1, §2, §3, §4, §5

[11] = Blood levels after oral administration in mice; details: mouse, 416 mg/kg
Description: In this test, mice are gavaged with a dose of 416 mg/kg of the test compound suspended in 33% PEG 400-water. At time intervals, blood samples are taken from the orbital sinus and are assayed for antibiotic activity as follows: A 7 mm. disc containing 20 μl of whole blood is placed on agar seeded with Aspergillus montevidensis A35137. After 40 hours incubation at 30° C. zones of inhibition from the blood samples are compared to a standard obtained from the test compound, and the amount of compound in the blood sample is calculated.

[12] = Toxicity on intravenous administration to a dog; assay type: in vivo; details: 100 mg/kg per day for five days
[13] = A23, 1 mg/ml suspension in methanol, 7mm disc, 24-48 hours at 25-37° C., read-out: Size of Zone of Inhibition

SMILES: CCCCCCCCCOc1ccc(C(=O)N[C@H]2C[C@@H](O)[C@@H](O)NC(=O)[C@@H]3[C@@H](O)[C@@H](C)CN3C(=O)[C@H]([C@@H](C)O)NC(=O)[C@H]([C@H](O)[C@@H](O)c3ccc(O)cc3)NC(=O)[C@@H]3C[C@@H](O)CN3C(=O)[C@H]([C@@H](C)O)NC2=O)cc1 (X8-[Orn(4R-OH,5R-OH)]T[Hyp][hTyr(3S-OH,4S-OH)]T[Pro(3S-OH,4S-Me)]; lactam 1-C)
MIC ([1]; A26): 0.312 µg/mL (≈ 0.299 µM)
MIC ([2]; SBH16): 0.312 µg/mL (≈ 0.299 µM)
MIC ([3]; SBH29): 0.312 µg/mL (≈ 0.299 µM)
MIC ([4]; SBH31): 0.312 µg/mL (≈ 0.299 µM)
MIC ([5]; SBH28): 0.312 µg/mL (≈ 0.299 µM)

SMILES: C[C@@H](O)[C@@H]1NC(=O)[C@H]([C@H](O)[C@@H](O)c2ccc(O)cc2)NC(=O)[C@@H]2C[C@@H](O)CN2C(=O)[C@H]([C@@H](C)O)NC(=O)[C@@H](N)C[C@@H](O)[C@@H](O)NC(=O)[C@@H]2[C@@H](O)[C@@H](C)CN2C1=O [A-30912A nucleus] (H-[Orn(4R-OH,5R-OH)]T[Hyp][hTyr(3S-OH,4S-OH)]T[Pro(3S-OH,4S-Me)]; lactam 1-C)
antifungal activity [6]: substantially devoid of antifungal activity

SMILES: CCCCCCCCCCS(=O)(=O)c1ccc(C(=O)N[C@H]2C[C@@H](O)[C@@H](O)NC(=O)[C@@H]3[C@@H](O)[C@@H](C)CN3C(=O)[C@H]([C@@H](C)O)NC(=O)[C@H]([C@H](O)[C@@H](O)c3ccc(O)cc3)NC(=O)[C@@H]3C[C@@H](O)CN3C(=O)[C@H]([C@@H](C)O)NC2=O)cc1 [drawing 112] (X4-[Orn(4R-OH,5R-OH)]T[Hyp][hTyr(3S-OH,4S-OH)]T[Pro(3S-OH,4S-Me)]; lactam 1-C)
zone of inhibition at 1000 µg/mL [7, 13]: 32 mm
zone of inhibition at 1000 µg/mL ([8]; X52, 1 mg/ml suspension in methanol, 7mm disc, 24-48 hours at 25-37° C., read-out: Size of Zone of Inhibition): 16 mm
zone of inhibition at 1000 µg/mL [9]: 31 mm
Size of Zone of Inhibition [10]: 55 mm

SMILES: CCCCCCCCCCCCS(=O)(=O)c1ccc(C(=O)N[C@H]2C[C@@H](O)[C@@H](O)NC(=O)[C@@H]3[C@@H](O)[C@@H](C)CN3C(=O)[C@H]([C@@H](C)O)NC(=O)[C@H]([C@H](O)[C@@H](O)c3ccc(O)cc3)NC(=O)[C@@H]3C[C@@H](O)CN3C(=O)[C@H]([C@@H](C)O)NC2=O)cc1 [drawing 113] (X5-[Orn(4R-OH,5R-OH)]T[Hyp][hTyr(3S-OH,4S-OH)]T[Pro(3S-OH,4S-Me)]; lactam 1-C)
zone of inhibition at 1000 µg/mL [7, 13]: 26 mm
zone of inhibition at 1000 µg/mL [9]: 37 mm
Size of Zone of Inhibition [10]: 48 mm

SMILES: CCCCCCCCCCCCCCS(=O)(=O)c1ccc(C(=O)N[C@H]2C[C@@H](O)[C@@H](O)NC(=O)[C@@H]3[C@@H](O)[C@@H](C)CN3C(=O)[C@H]([C@@H](C)O)NC(=O)[C@H]([C@H](O)[C@@H](O)c3ccc(O)cc3)NC(=O)[C@@H]3C[C@@H](O)CN3C(=O)[C@H]([C@@H](C)O)NC2=O)cc1 [drawing 114] (X2-[Orn(4R-OH,5R-OH)]T[Hyp][hTyr(3S-OH,4S-OH)]T[Pro(3S-OH,4S-Me)]; lactam 1-C)
zone of inhibition at 1000 µg/mL ([7]; A23, read-out: Size of Zone of Inhibition): 23 mm
zone of inhibition at 1000 µg/mL ([8]; X52, read-out: Size of Zone of Inhibition): 23 mm
zone of inhibition at 1000 µg/mL [9]: 29 mm
Size of Zone of Inhibition [10]: 30 mm

SMILES: CCCCCCCCCCCCSc1ccc(C(=O)N[C@H]2C[C@@H](O)[C@@H](O)NC(=O)[C@@H]3[C@@H](O)[C@@H](C)CN3C(=O)[C@H]([C@@H](C)O)NC(=O)[C@H]([C@H](O)[C@@H](O)c3ccc(O)cc3)NC(=O)[C@@H]3C[C@@H](O)CN3C(=O)[C@H]([C@@H](C)O)NC2=O)cc1 [drawing 149] (X1-[Orn(4R-OH,5R-OH)]T[Hyp][hTyr(3S-OH,4S-OH)]T[Pro(3S-OH,4S-Me)]; lactam 1-C)
MIC ([1]; A26): 0.625 µg/mL (≈ 0.567 µM)
MIC ([2]; SBH16): 0.625 µg/mL (≈ 0.567 µM)
MIC ([3]; SBH29): 0.625 µg/mL (≈ 0.567 µM)
MIC ([4]; SBH31): 0.625 µg/mL (≈ 0.567 µM)
MIC ([5]; SBH28): 0.625 µg/mL (≈ 0.567 µM)

MIC ([1]; A26, strain A-26, agar dilution, read-out: MIC): 2.5 µg/mL (≈ 2.21 µM)
MIC ([2]; strain SBH16, agar dilution, read-out: MIC): 2.5 µg/mL (≈ 2.21 µM)
MIC ([3]; strain SBH29, agar dilution, read-out: MIC): 2.5 µg/mL (≈ 2.21 µM)
MIC ([4]; strain SBH31, agar dilution, read-out: MIC): 2.5 µg/mL (≈ 2.21 µM)
MIC ([5]; strain SBH28, agar dilution, read-out: MIC): 2.5 µg/mL (≈ 2.21 µM)
SMILES: CCCCCCCCCCCCCCSc1ccc(C(=O)N[C@H]2C[C@@H](O)[C@@H](O)NC(=O)[C@@H]3[C@@H](O)[C@@H](C)CN3C(=O)[C@H]([C@@H](C)O)NC(=O)[C@H]([C@H](O)[C@@H](O)c3ccc(O)cc3)NC(=O)[C@@H]3C[C@@H](O)CN3C(=O)[C@H]([C@@H](C)O)NC2=O)cc1 [drawing 150] (X3-[Orn(4R-OH,5R-OH)]T[Hyp][hTyr(3S-OH,4S-OH)]T[Pro(3S-OH,4S-Me)]; lactam 1-C)

SMILES: CCCCCCCCOc1ccc(C(=O)N[C@H]2C[C@@H](O)[C@@H](O)NC(=O)[C@@H]3[C@@H](O)[C@@H](C)CN3C(=O)[C@H]([C@@H](C)O)NC(=O)[C@H]([C@H](O)[C@@H](O)c3ccc(O)cc3)NC(=O)[C@@H]3C[C@@H](O)CN3C(=O)[C@H]([C@@H](C)O)NC2=O)cc1 [drawing 181] ({Benzoyl(4-octyloxy)}-[Orn(4R-OH,5R-OH)]T[Hyp][hTyr(3S-OH,4S-OH)]T[Pro(3S-OH,4S-Me)]; lactam 1-C)
Cmax [11]: 23000 ng/mL

SMILES: CCCCCCCCOc1ccc(C(=O)N[C@H]2C[C@@H](O)[C@@H](O)NC(=O)[C@@H]3[C@@H](O)[C@@H](C)CN3C(=O)[C@H]([C@@H](C)O)NC(=O)[C@H]([C@H](O)[C@@H](O)c3ccc(O)cc3)NC(=O)[C@@H]3C[C@@H](O)CN3C(=O)[C@H]([C@@H](C)O)NC2=O)cc1 [p-(n-octyloxy)benzoyl derivative of A-30912A nucleus] ({Benzoyl(4-octyloxy)}-[Orn(4R-OH,5R-OH)]T[Hyp][hTyr(3S-OH,4S-OH)]T[Pro(3S-OH,4S-Me)]; lactam 1-C)
SGPT levels [12]: increased SGPT levels were observed
outward signs of toxicity [12]: no outward signs of toxicity

Reference: patent publication US4293489A, “Derivatives of A-30912A nucleus” (Eli Lilly and Company, priority 1980, dated 1981)
